Experimental data as given in patent US20050197350A1, “Novel quinoline, tetrahydroquinazoline, and pyrimidine derivatives and methods of treatment related to the use thereof” (TAISHO PHARMACEUTICAL CO., LTD., priority 2003, published 2005).

Biological target: MCH receptor (Homo sapiens, UniProt Q99705)
Assay: High throughput functional screening FLIPR/FDSS6000 (intracellular Ca2+ evoked by MCH)
Type: cell-based
Details: FLIPR/FDSS, antagonist activity vs 50 nM MCH; class by percent of control at 10^−7 M or IC50; read-out: class
Method in brief: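 For antagonist testing, compound-treated cells (30 min, 37 °C) were stimulated with 50 nM MCH and intracellular Ca2+ followed by Fluo4 fluorescence on FLIPR/FDSS6000. Receptor was a constitutively active, non-endogenous MCH receptor; dye loading 4 μM Fluo4-AM, 1 h, 37 °C.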

Q: With `Cc1cnc(N[C@H]2CC[C@@H](NC(=O)Nc3c(Cl)cc(Cl)cc3Cl)CC2)nc1N(C)C` [Example 3345, N-(cis-4-{[4-(dimethylamino)-5-methylpyrimidin-2-yl]amino}cyclohexyl)-N′-(2,4,6-trichlorophenyl)urea] as the molecule, how does the IC50 read?
A: Its IC50 is less than 50 nM.

Q: How did the IC50 turn out when `Cc1cnc(N[C@H]2CC[C@@H](NC(=O)N(C)c3ccccc3F)CC2)nc1N(C)C` [Example 3346, N′-(cis-4-{[4-(dimethylamino)-5-methylpyrimidin-2-yl]amino}cyclohexyl)-N-(2-fluorophenyl)-N-methylurea] was run?
A: Its IC50 is greater than 200 nM.

Q: Which IC50 does the source give for `Cc1cnc(N[C@H]2CC[C@@H](NC(=O)N(C)c3ccccc3Cl)CC2)nc1N(C)C` [Example 3347, N-(2-chlorophenyl)-N′-(cis-4-{[4-(dimethylamino)-5-methylpyrimidin-2-yl]amino}cyclohexyl)-N-methylurea] here?
A: The IC50 was 50 to 200 nM.

Q: `Cc1cnc(N[C@H]2CC[C@@H](NC(=O)N(C)c3ccc(Cl)cc3Cl)CC2)nc1N(C)C` [Example 3348, N-(2,4-dichlorophenyl)-N′-(cis-4-{[4-(dimethylamino)-5-methylpyrimidin-2-yl]amino}cyclohexyl)-N-methylurea] was tested. Which IC50 did it give?
A: Its IC50 is less than 50 nM.

Q: Which IC50 does the source give for `CCN(C(=O)N[C@H]1CC[C@@H](Nc2ncc(C)c(N(C)C)n2)CC1)c1ccccc1OC(F)(F)F` [Example 3349, N′-(cis-4-{[4-(dimethylamino)-5-methylpyrimidin-2-yl]amino}cyclohexyl)-N-ethyl-N-[2-(trifluoromethoxy)-phenyl]urea] here?
A: Its IC50 is 50 to 200 nM.

Q: `CCN(C(=O)N[C@H]1CC[C@@H](Nc2ncc(C)c(N(C)C)n2)CC1)c1ccccc1` [Example 3350, N′-(cis-4-{[4-(dimethylamino)-5-methylpyrimidin-2-yl]amino}cyclohexyl)-N-ethyl-N-phenylurea] was tested. Which IC50 did it give?
A: The IC50 was less than 50 nM.

Q: For `CCN(C(=O)N[C@H]1CC[C@@H](Nc2ncc(C)c(N(C)C)n2)CC1)c1ccc(OC(F)(F)F)cc1` [Example 3351, N′-(cis-4-{[4-(dimethylamino)-5-methylpyrimidin-2-yl]amino}cyclohexyl)-N-ethyl-N-[4-(trifluoromethoxy)-phenyl]urea], which IC50 is on record?
A: Its IC50 is less than 50 nM.

Q: `Cc1cnc(N[C@H]2CC[C@@H](NC(=O)N(C)c3ccccc3OC(F)(F)F)CC2)nc1N(C)C` [Example 3352, N′-(cis-4-{[4-(dimethylamino)-5-methylpyrimidin-2-yl]amino}cyclohexyl)-N-methyl-N-[2-(trifluoromethoxy)-phenyl]urea] was tested. Which IC50 did it give?
A: The IC50 was less than 50 nM.

Q: How did the IC50 turn out when `CCN(C(=O)N[C@H]1CC[C@@H](Nc2ncc(C)c(N(C)C)n2)CC1)c1ccc(Cl)cc1` [Example 3353, N-(4-chlorophenyl)-N′-(cis-4-{[4-(dimethylamino)-5-methylpyrimidin-2-yl]amino}cyclohexyl)-N-ethylurea] was run?
A: The IC50 was less than 50 nM.

Q: How did the IC50 turn out when `CCN(C(=O)N[C@H]1CC[C@@H](Nc2ncc(C)c(N(C)C)n2)CC1)c1cc(C(F)(F)F)cc(C(F)(F)F)c1` [Example 3354, N-[3,5-bis(trifluoromethyl)phenyl]-N′-(cis-4-{[4-(dimethylamino)-5-methylpyrimidin-2-yl]amino}cyclohexyl)-N-ethylurea] was run?
A: Its IC50 is less than 50 nM.

Q: For `CCN(C(=O)N[C@H]1CC[C@@H](Nc2ncc(C)c(N(C)C)n2)CC1)c1cccc(C)c1` [Example 3355, N′-(cis-4-{[4-(dimethylamino)-5-methylpyrimidin-2-yl]amino}cyclohexyl)-N-ethyl-N-(3-methylphenyl)urea], which IC50 is on record?
A: Its IC50 is less than 50 nM.

Q: For `Cc1cnc(N[C@H]2CC[C@@H](NC(=O)COc3cc(C(F)(F)F)nn3C)CC2)nc1N(C)C` [Example 3356, N-(cis-4-{[4-(dimethylamino)-5-methylpyrimidin-2-yl]amino}cyclohexyl)-2-{[1-methyl-3-(trifluoromethyl)-1H-pyrazol-5-yl]oxy}acetamide], which IC50 is on record?
A: Its IC50 is less than 50 nM.

Q: For `Cc1cnc(N[C@H]2CC[C@@H](NC(=O)COc3cc(C(F)(F)F)ncn3)CC2)nc1N(C)C` [Example 3357, N-(cis-4-{[4-(dimethylamino)-5-methylpyrimidin-2-yl]amino}cyclohexyl)-2-{[6-(trifluoromethyl)pyrimidin-4-yl]oxy}acetamide], which IC50 is on record?
A: The IC50 was greater than 200 nM.

Q: Which IC50 does the source give for `CNc1cc(C)nc(N[C@H]2CC[C@@H](NC(=O)COc3ccc(Cl)c(Cl)c3)CC2)n1` [Example 3360, 2-(3,4-dichlorophenoxy)-N-(cis-4-{[4-methyl-6-(methylamino)pyrimidin-2-yl]amino}cycohexyl)acetamide] here?
A: The IC50 was less than 50 nM.

Q: `CNc1nc(N[C@H]2CC[C@@H](NC(=O)COc3cc(C(F)(F)F)nn3C)CC2)ncc1C` [Example 3362, N-(cis-4-{[5-methyl-4-(methylamino)pyrimidin-2-yl]amino}-cyclohexyl)-2-{[1-methyl-3-(trifluoromethyl)-1H-pyrazol-5-yl]oxy}acetamide] was tested. Which IC50 did it give?
A: Its IC50 is greater than 200 nM.

Q: With `CNc1nc(N[C@H]2CC[C@@H](NC(=O)COc3cc(C(F)(F)F)ncn3)CC2)ncc1C` [Example 3363, N-(cis-4-{[5-methyl-4-(methylamino)pyrimidin-2-yl]amino}-cyclohexyl)-2-{[6-(trifluoromethyl)pyrimidin-4-yl]oxy}acetamide] as the molecule, how does the IC50 read?
A: Its IC50 is greater than 200 nM.

Q: `CNc1nc(N[C@H]2CC[C@@H](NC(=O)COc3cc(C(F)(F)F)n(C)n3)CC2)ncc1C` [Example 3364, N-(cis-4-{[5-methyl-4-(methylamino)pyrimidin-2-yl]amino}-cyclohexyl)-2-{[1-methyl-5-(trifluoromethyl)-1H-pyrazol-3-yl]oxy}acetamide] was tested. Which IC50 did it give?
A: Its IC50 is greater than 200 nM.

Q: For `Cc1cc(CN[C@H]2CC[C@@H](NC(=O)c3ccc(F)c(F)c3)CC2)nc2ccccc12` [Example 3366, 3,4-difluoro-N-(cis-4-{[(4-methylquinolin-2-yl)methyl]amino}cyclohexyl)benzamide], which IC50 is on record?
A: Its IC50 is greater than 200 nM.

Q: For `Cc1cc(N(C)C)nc(N[C@H]2CC[C@@H](NC(=O)c3cccnc3S(=O)(=O)c3ccc(F)cc3)CC2)n1` [Example 3368, N-(cis-4-{[4-(dimethylamino)-6-methylpyrimidin-2-yl]amino}cyclohexyl)-2-[(4-fluorophenyl)sulfonyl]nicotinamide], which IC50 is on record?
A: Its IC50 is 50 to 200 nM.

Q: Which IC50 does the source give for `Cc1cc(N(C)C)nc(N[C@H]2CC[C@@H](NC(=O)c3cccnc3S(=O)(=O)c3ccccc3Cl)CC2)n1` [Example 3369, 2-[(2-chlorophenyl)sulfonyl]-N-(cis-4-{[4-(dimethylamino)-6-methylpyrimidin-2-yl]amino}cyclohexyl)nicotinamide] here?
A: The IC50 was 50 to 200 nM.

Q: For `Cc1cc(N(C)C)nc(N[C@H]2CC[C@@H](NC(=O)c3cccnc3S(=O)(=O)c3cccc(Cl)c3)CC2)n1` [Example 3370, 2-[(3-chlorophenyl)sulfonyl]-N-(cis-4-{[4-(dimethylamino)-6-methylpyrimidin-2-yl]amino}cyclohexyl)nicotinamide], which IC50 is on record?
A: The IC50 was 50 to 200 nM.

Q: How did the IC50 turn out when `Cc1cc(N(C)C)nc(N[C@H]2CC[C@@H](NC(=O)c3cccnc3S(=O)(=O)c3ccc(Cl)cc3)CC2)n1` [Example 3371, 2-[(4-chlorophenyl)sulfonyl]-N-(cis-4-{[4-(dimethylamino)-6-methylpyrimidin-2-yl]amino}cyclohexyl)nicotinamide] was run?
A: The IC50 was greater than 200 nM.

Q: With `Cc1cc(N(C)C)nc(N[C@H]2CC[C@@H](NC(=O)c3cccnc3S(=O)(=O)c3ccccc3Br)CC2)n1` [Example 3372, 2-[(2-bromophenyl)sulfonyl]-N-(cis-4-{[4-(dimethylamino)-6-methylpyrimidin-2-yl]amino}cyclohexyl)nicotinamide] as the molecule, how does the IC50 read?
A: The IC50 was greater than 200 nM.

Q: With `Cc1cc(N(C)C)nc(N[C@H]2CC[C@@H](NC(=O)c3cccnc3S(=O)(=O)c3cccc(Br)c3)CC2)n1` [Example 3373, 2-[(3-bromophenyl)sulfonyl]-N-(cis-4-{[4-(dimethylamino)-6-methylpyrimidin-2-yl]amino}cyclohexyl)nicotinamide] as the molecule, how does the IC50 read?
A: Its IC50 is 50 to 200 nM.

Q: `Cc1cc(N(C)C)nc(N[C@H]2CC[C@@H](NC(=O)c3cccnc3S(=O)(=O)c3ccc(Br)cc3)CC2)n1` [Example 3374, 2-[(4-bromophenyl)sulfonyl]-N-(cis-4-{[4-(dimethylamino)-6-methylpyrimidin-2-yl]amino}cyclohexyl)nicotinamide] was tested. Which IC50 did it give?
A: The IC50 was greater than 200 nM.

Q: How did the IC50 turn out when `Cc1cc(N(C)C)nc(N[C@H]2CC[C@@H](NC(=O)c3cccnc3S(=O)(=O)c3ccccc3C)CC2)n1` [Example 3375, N-(cis-4-{[4-(dimethylamino)-6-methylpyrimidin-2-yl]amino}cyclohexyl)-2-[(2-methylphenyl)sulfonyl]nicotinamide] was run?
A: Its IC50 is 50 to 200 nM.

Q: `Cc1cccc(S(=O)(=O)c2ncccc2C(=O)N[C@H]2CC[C@@H](Nc3nc(C)cc(N(C)C)n3)CC2)c1` [Example 3376, N-(cis-4-{[4-(dimethylamino)-6-methylpyrimidin-2-yl]amino}cyclohexyl)-2-[(3-methylphenyl)sulfonyl]nicotinamide] was tested. Which IC50 did it give?
A: The IC50 was greater than 200 nM.

Q: How did the IC50 turn out when `Cc1ccc(S(=O)(=O)c2ncccc2C(=O)N[C@H]2CC[C@@H](Nc3nc(C)cc(N(C)C)n3)CC2)cc1` [Example 3377, N-(cis-4-{[4-(dimethylamino)-6-methylpyrimidin-2-yl]amino}cyclohexyl)-2-[(4-methylphenyl)sulfonyl]nicotinamide] was run?
A: The IC50 was 50 to 200 nM.

Q: `COc1ccccc1S(=O)(=O)c1ncccc1C(=O)N[C@H]1CC[C@@H](Nc2nc(C)cc(N(C)C)n2)CC1` [Example 3378, N-(cis-4-{[4-(dimethylamino)-6-methylpyrimidin-2-yl]amino}cyclohexyl)-2-[(2-methoxyphenyl)sulfonyl]-nicotinamide] was tested. Which IC50 did it give?
A: Its IC50 is greater than 200 nM.

Q: `COc1cccc(S(=O)(=O)c2ncccc2C(=O)N[C@H]2CC[C@@H](Nc3nc(C)cc(N(C)C)n3)CC2)c1` [Example 3379, N-(cis-4-{[4-(dimethylamino)-6-methylpyrimidin-2-yl]amino}cyclohexyl)-2-[(3-methoxyphenyl)sulfonyl]-nicotinamide] was tested. Which IC50 did it give?
A: The IC50 was greater than 200 nM.

Q: How did the IC50 turn out when `COc1ccc(S(=O)(=O)c2ncccc2C(=O)N[C@H]2CC[C@@H](Nc3nc(C)cc(N(C)C)n3)CC2)cc1` [Example 3380, N-(cis-4-{[4-(dimethylamino)-6-methylpyrimidin-2-yl]amino}cyclohexyl)-2-[(4-methoxyphenyl)sulfonyl]-nicotinamide] was run?
A: Its IC50 is greater than 200 nM.
